Assay results reported in patent publication US9415049B2, “Heteroaryl compounds and uses thereof” (Celgene Avilomics Research, Inc., priority 2013, dated 2016).

What was measured:
[1] = biological target: human recombinant full-length Btk enzyme (Homo sapiens, UniProt Q06187); assay: Covalent bonding assay, intact protein MALDI mass spectrometry; assay type: binding; set-up: The full-length recombinant human Btk protein; purchased Invitrogen Lot #619547Q (catalogue number not given); settings: percentage of total protein covalently modified after one hour incubation, 10-fold excess of compound, room temperature
Sequence of human recombinant full-length Btk enzyme (Q06187 whole entry): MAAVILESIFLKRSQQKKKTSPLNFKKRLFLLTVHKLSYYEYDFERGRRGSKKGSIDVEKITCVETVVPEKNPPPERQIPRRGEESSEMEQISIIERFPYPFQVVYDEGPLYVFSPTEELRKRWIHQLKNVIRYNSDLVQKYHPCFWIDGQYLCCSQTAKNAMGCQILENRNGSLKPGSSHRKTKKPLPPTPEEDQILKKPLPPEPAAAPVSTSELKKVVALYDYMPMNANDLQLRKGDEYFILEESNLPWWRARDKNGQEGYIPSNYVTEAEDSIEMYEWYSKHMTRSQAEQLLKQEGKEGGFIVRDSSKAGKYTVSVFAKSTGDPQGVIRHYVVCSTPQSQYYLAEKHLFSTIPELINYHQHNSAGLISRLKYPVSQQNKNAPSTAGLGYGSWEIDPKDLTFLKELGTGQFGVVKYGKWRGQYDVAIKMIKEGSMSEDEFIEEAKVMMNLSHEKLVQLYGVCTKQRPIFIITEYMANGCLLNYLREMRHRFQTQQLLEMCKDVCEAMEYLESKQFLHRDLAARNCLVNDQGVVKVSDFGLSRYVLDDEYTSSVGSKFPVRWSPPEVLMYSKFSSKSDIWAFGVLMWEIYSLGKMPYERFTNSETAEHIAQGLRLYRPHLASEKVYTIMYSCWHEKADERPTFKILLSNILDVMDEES
Method: The following example describes testing certain compounds to determine whether they covalently bind to BTK. The full-length recombinant human Btk protein (Lot #619547Q; 0.35 mg/mL) was obtained from Invitrogen (Carlsbad, Calif.). Btk protein was diluted 2:3 in phosphate-buffered saline and stock concentration (10 mM) of compound was diluted 1:115 in 50% DMSO.
For all compounds, 1 μL of diluted compound was added to 5 μL of diluted protein. These mixtures were then incubated for 60 minutes at a 10-fold excess of compound to protein under room temperature (˜24° C.) conditions.
At the end of the incubation, 5 μL aliquots of the samples were diluted with 15 μL of 0.2% TFA prior to micro C4 ZipTipping® directly onto the MALDI target plate using sinapinic acid as the desorption matrix (10 mg/mL in 0.2% TFA:Acetonitrile 50:50). Samples were immediately analyzed on an ABSciex 4800 MALDI TOF-TOF mass spectrometer.
For intact protein mass measurement, the mass spectrometer was set in linear mode using a pulsed extraction setting of 81,500. Bovine serum albumin (BSA; Sigma, St Louis, Mo.) was used as the standard to calibrate the instrument. These values correspond to the percentage of total protein covalently modified by the tested compound after one hour incubation.

[2] = biological target: T1, BTK autophosphorylation (Phospho Y223 Btk) in Ramos cells (Homo sapiens, UniProt Q06187); assay: Btk Ramos cell signaling immunoblot analysis, phospho-Btk; assay type: cell-based; settings: 1 hour compound incubation, anti-human IgM stimulation, phospho-Btk normalized to total Btk, read-out: pBtk EC50
T1 construct: endogenous in cells; host or cells: Ramos cells
T1 sequence (Q06187 whole entry): as above
Method: The following example describes testing certain compounds according to the invention for inhibition of BTK activity. Ramos cells were incubated in serum-free RPMI medium for 1-1.5 hours. Cells were then centrifuged for 5 minutes at 1100 RPM and resuspended in serum-free RPMI in 15 mL roundbottom Corning tubes (˜2×10^6 cells/mL in 4 mL/tube). The compound was diluted in DMSO and was added to the cells to achieve a final concentration of 0.0003, 0.001, 0.003, 0.01, 0.03, 0.1, 0.3, and 1.0 μM. Cells were then incubated for 1 hour at 37° C. Following incubation, cells were spun at 1100 RPM for 5 minutes and then resuspended in 100 μL of serum-free RPMI. […] Supernatant was transferred to a fresh tube and analyzed for protein content. […]
10 μg of protein was denatured by adding 1:10 (v:v) of NuPage Reducing Agent plus 1:4 (v:v) of LDS Loading Buffer. […] The membrane was then scanned on a LiCor Odyssey Scanner using infrared fluorescence detection.
Data analysis was accomplished using the analysis package found in Odyssey Infrared Imaging System software in which intensities of total Btk and phospho-Btk were measured. Phospho-Btk was normalized to total Btk protein in each lane as a loading control and results are expressed as % activity compared to the DMSO control (100%) Inhibition of phospho-PLCγ2 was quantitated in a similar manner. […]

Row | SMILES | MS % modification [1] | EC50 [2]
1 | C=CC(=O)Nc1cccc(Nc2nc(Nc3ccc(O)cc3)ncc2F)c1 [Compound I-3, N-(3-((5-fluoro-2-((4-hydroxyphenyl)amino)pyrimidin-4-yl)amino)phenyl)acrylamide] | A (>70% modification) | 10 to 50 nM
2 | C=CC(=O)Nc1cccc(Nc2nc(Nc3ccc(OCCO)cc3)ncc2F)c1 [Compound I-1, N-(3-((5-fluoro-2-((4-(2-hydroxyethoxy)phenyl)amino)pyrimidin-4-yl)amino)phenyl)acrylamide] | B (31-69% modification) | < 10 nM
